From patent US10995068B2, “Synthetic sphingolipid-like molecules, drugs, methods of their synthesis and methods of treatment” (The Regents of the University of California, priority 2015, dated 2021)

What was measured:
[1] = Heart rate by ECG telemetry in mice; assay type: in vivo, C57BL/6 mice; conditions: for heart rate in telemetry tracing: after injection, saline approximately 600 BPM
Source text: In more exemplary embodiments, compounds 5 and 5-P were further examined for their ability to activate multiple S1P receptors in vivo. In particular, mouse heart rate and lymphocyte sequestration were examined. Mouse heart rate decreases causing bradycardia when S1P receptor 3 is activated while in humans this effect may be mediated by S1P receptor 1. In both mice and humans, lymphocytes are sequestered when the S1P receptor 1 is activated.
As shown in the telemetry readings detailed in FIG. 36, FTY720 (B) slowed heart rate comparison to compound 5 (C) and the control (A, saline). As shown in A, after administering saline, normal sinus rhythm with clearly discernible P waves, representing atrial depolarization, and QRS complexes, representing ventricular depolarization, at regular intervals is observed. The heart rate in this tracing was approximately 600 beats per minute (BPM). […] Finally, as shown in C, for exemplary embodiment compound 5, similar to the saline injection, normal sinus rhythm with well-defined and consistent P waves and QRS complexes were present following injection. The heart rate in this tracing was approximately 600 BPM, similar to saline.
Heart rate: C57BL/6 mice are surgically implanted with DSI TA-ETAF20 electrocardiographic telemetry devices (Data Sciences International, St. Paul, Minn.). The electrocardiographic data is collected and recorded using the PhysioTel telemetry system and Dataquest A.R.T 4.0 software (DSI). The telemetry device is implanted in the mouse's abdominal cavity with biopotential leads sutured in place in the chest wall. Buprenorphine (0.05 mg/kg) is administered every 12 h after surgery for pain management and enrofloxacin (3 mg/kg) is administered 2× per day for 7 days post-surgery as an antibiotic. Mice are permitted two weeks recovery after surgery before initiation of baseline telemetry recordings. Heart rate is calculated from ECG data taken in the freely moving, conscious mice. Mice are divided into two groups of 3 mice and treated intraperitoneally with a single dose of vehicle (0.9% saline or 20% acidified DMSO in 0.9% saline), 10 mg/kg FTY720, FTY720-Phosphate, 5, or 5-P and heart rate monitored continuously for 10 h. Mice are rested for two weeks at which point the experiment is repeated with the mice assigned to the alternate group. These experiments are performed in accordance with all national or local guidelines and regulations and were approved by the UCI Institutional Animal Care and Use Committee.

[2] = test system: luciferase-expressing SW620 xenografts; test: Luciferase-expressing SW620 xenografts treated with SH-BC-893; assay type: in vivo, mice; conditions: for SW620 tumors by bioluminescence imaging, caliper measurements and tumor mass at sacrifice: luciferase-expressing SW620 xenografts in mice, SH-BC-893 20 mg/kg i.p.
Method: In many embodiments, exemplary experimentation was carried out to determine whether azacyclic constrained sphingolipid-lipid molecules inhibited neoplastic growth in vivo. To carry out this experimentation, luciferase-expressing SW620 xenografts were generated in mice.
In vivo studies. Experiments conducted in mice were performed in accordance with the Institutional Animal Care and Use Committee of University of California, Irvine following a power analysis conducted in consultation with the Biostatistics Shared Resource of Chao Family Comprehensive Cancer Center at UCI. Xenografts were produced by injecting 5 million cells subcutaneously in the flank of 10-16 week-old male or female NSG mice. Prostate isografts were produced in the same manner but in male 6-8 wk old C57BL/6 mice. Once tumors reached 100 mm^3, SH-BC-893 was administered by intraperitoneal (i.p.) injection or oral gavage as indicated. Tumor volume was calculated using the formula, volume (mm^3)=length [mm]×(width [mm])^2×0.52; BLI was measured using an IVIS imaging system (Xenogen). To generate pDKO mice on the C57BL6 background, Pten^flox mice (stock No. 0045597) and p53^flox mice (stock No. 008462) were obtained from the Jackson Laboratory and PB-Cre4 mice (strain #01XF5) were obtained from the NCI-Frederick Mouse Repository. Age-matched cohorts of pDKO males were generated by in vitro fertilization executed with the assistance of the Transgenic Mouse Facility at UC Irvine. Treatment was begun at 6-7 wks of age. […] Tumor samples were processed and imaged by the Pathology Research Services Core Facility at UC Irvine. Blood chemistry was analyzed by IDEXX BioResearch and complete blood counts were performed using a Hemavet hematology system.

[3] = test system: 4F2 cell-surface antigen heavy chain (4F2hc); test: Surface 4F2hc nutrient transporter expression; assay type: cell-based, human; conditions: treatment at IC50 and at twice this dose, 6 h; efficacy similar to FTY720
Source text: The broad activity of the embodiments of the inventions described herein is consistent with a bioenergetic mechanism of action against cancer cells that includes nutrient transporter down-regulation, as described supra. Thus, to directly examine the constrained pyrrolidine sphingolipid-like molecules on nutrient transport, the surface-levels of the amino acid transporter associated protein 4F2 cell-surface antigen heavy chain (4F2hc) was examined following treatment with several analogues at their IC50 and at twice this dose.
Nutrient transporter expression: Surface 4F2hc expression is measured at 6 h using phycoerythrin (PE)-conjugated mouse anti-human 4F2hc antibody (BD Pharmingen, cat #556077); analysis is restricted to viable cells. PE conjugated Mouse IgG1, k (cat #555749, BD Pharmingen) is used as an isotype control. Cells are analyzed on a BD LSR II flow cytometer and with FlowJo software (Treestar).

Structure (SMILES)	heart rate in telemetry tracing [1]	effect on heart rate ([1]; single dose 10 mg/kg intraperitoneally, compared to saline controls)	body weight of treated mice ([2]; SW620 xenograft mice)	SW620 tumors by bioluminescence imaging, caliper measurements and tumor mass at sacrifice [2]	4F2hc surface levels [3]	decrease of heart rate ([1]; single dose 10 mg/kg intraperitoneally, compared to saline vehicle)
CCCCCCCCc1ccc([C@H]2CCN[C@@H]2CO)cc1.Cl [Compound 5, (2S,3R)-2-(hydroxymethyl)-3-(4-octylphenyl)Pyrrolidinium chloride]	approximately 600 BPM	no significant effect	Mild weight loss	reduced to a similar degree	reduced 4F2hc surface levels	
CCCCCCCCc1ccc([C@@H]2CCN[C@H]2CO)cc1.Cl [Compound 6]					reduced 4F2hc surface levels	
CCCCCCCCc1ccc(CCC(N)(CO)CO)cc1.Cl [FTY720, 2-Amino-2-[2-(4-octylphenyl)ethyl]propane 1,3-diol hydrochloride, reference compound]	approximately 200 BPM			reduced to a similar degree		approximately 50%
